The values below come from patent US9523100B2, “Pesticidal compositions and related methods” (DOW AGROSCIENCES LLC, priority 2013, dated 2016).

Read-outs that look alike come from different tables or passages of the source.

Assay [1] has as its system Green Peach Aphid (GPA) (Myzus persicae) (MYZUPE). The assay is described as follows: Bioassay for Green Peach Aphid (GPA), foliar spray on cabbage seedlings. It counts as in vivo. As to conditions: 72 h, read-out: GPA 200 ppm, % Control (or Mortality) rating. In outline:
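Foliar spray test: 200 ppm solutions (0.025% Tween 20 in water, 20% acetone/methanol) applied to both leaf sides of aphid-infested cabbage seedlings. After 3 days at about 25° C, live aphids per plant were counted; control corrected to solvent check via Abbott's formula.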

For assay [2], the system named is Sweetpotato Whitefly-Crawler (WF) (Bemisia tabaci) (BEMITA). The experiment in a line: Insecticidal test for Sweetpotato Whitefly-Crawler (WF) in foliar spray assay on cotton plants. It counts as in vivo. The note with it: 216 h, read-out: WF 200 ppm, % Control (or Mortality) rating. The method in brief:
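Whitefly nymph control on egg-infested cotton (eggs laid 4–5 days pre-treatment), foliar spray at 200 ppm test compound. Live late-stage nymphs counted microscopically 9 days later at ~25 °C; control calculated by Abbott's formula relative to acetone-diluent-sprayed plants.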

[3] abbreviates: 200 ppm foliar spray on cabbage seedlings, graded after three days, Abbott corrected % control.
Setting [4] is: 200 ppm foliar spray on cotton plants, graded after 9 days, Abbott corrected % control.

For the molecule `CCN(C(=O)CCC(=O)NCc1cccc(Cl)c1)c1cn(-c2cccnc2)nc1Cl` [Compound F68, N1-(3-Chloro-1-(pyridin-3-yl)-1H-pyrazol-4-yl)-N4-(3-chlorobenzyl)-N1-ethylsuccinamide], the figures for the mortality at 200 ppm in assay [1] (setting [3]) and in assay [2] (setting [4]) were 0 to 80% and 80 to 100%, respectively.

Turning to `CCN(C(=O)CC/C(=N/OCc1ccc(C(F)(F)F)nc1)c1cccs1)c1cn(-c2cccnc2)nc1Cl` [FA37, (Z)-N-(3-Chloro-1-(pyridin-3-yl)-1H-pyrazol-4-yl)-N-ethyl-4-(thiophen-2-yl)-4-(((6-(trifluoromethyl)pyridin-3-yl)methoxy)imino)butanamide], the results for the mortality at 200 ppm in assay [1] (setting [3]) and in assay [2] (setting [4]) were 0 to 80% and 80 to 100%, respectively.

Take `CCN(C(=O)COC(C)=O)c1cn(-c2cccnc2)nc1Cl` [FA72, 2-((3-Chloro-1-(pyridin-3-yl)-1H-pyrazol-4-yl)(ethyl)amino)-2-oxoethyl acetate]: the results for the mortality at 200 ppm in assay [1] (setting [3]) and in assay [2] (setting [4]) were 0 to 80% and 80 to 100%, respectively.

`CCN(C(=O)CC(C)=O)c1cn(-c2cccnc2)nc1Cl` [FA66, N-(3-chloro-1-(pyridin-3-yl)-1H-pyrazol-4-yl)-N-ethyl-3-oxobutanamide]: the mortality at 200 ppm in assay [1] (setting [3]) and in assay [2] (setting [4]) was 80 to 100% in each case.

In the case of `CCN(C(=O)CCN(C)C(=O)N(C)C)c1cn(-c2cccnc2)nc1Cl` [Compound F121, N-(3-Chloro-1-(pyridin-3-yl)-1H-pyrazol-4-yl)-N-ethyl-3-(1,3,3-trimethylureido)propanamide], the mortality at 200 ppm in assay [1] (setting [3]) and in assay [2] (setting [4]) was 80 to 100% in each case.

For the molecule `CCN(C(=O)C1CN(C(C)=O)C1)c1cn(-c2cccnc2)nc1Cl` [Compound P23, 1-Acetyl-N-(3-chloro-1-(pyridin-3-yl)-1H-pyrazol-4-yl)-N-ethylazetidine-3-carboxamide], the mortality at 200 ppm in assay [1] (setting [3]) and in assay [2] (setting [4]) was 80 to 100% in each case.

Regarding `CCN(C(=O)CC/C(C)=N/Oc1cc(C(F)(F)F)ccn1)c1cn(-c2cccnc2)nc1Cl` [Compound F36, (E/Z)-N-(3-Chloro-1-(pyridin-3-yl)-1H-pyrazol-4-yl)-N-ethyl-4-(((4-(trifluoromethyl)pyridin-2-yl)oxy)imino)pentanamide], the mortality at 200 ppm in assay [1] (setting [3]) and in assay [2] (setting [4]) was 80 to 100% throughout.

Regarding `CCN(C(=O)CCNC(=O)C1(C)CC1(F)F)c1cn(-c2cccnc2)nc1Cl` (centres unmarked) [Compound F113, N-(3-((3-chloro-1-(pyridin-3-yl)-1H-pyrazol-4-yl)(ethyl)amino)-3-oxopropyl)-2,2-difluoro-1-methylcyclopropanecarboxamide], the mortality at 200 ppm in assay [1] (setting [3]) and in assay [2] (setting [4]) was 80 to 100% each time.

For the molecule `CCN1CC(CCC(=O)N(CC)c2cn(-c3cccnc3)nc2Cl)C1=O` (centres unmarked) [Compound F103, N-(3-Chloro-1-(pyridin-3-yl)-1H-pyrazol-4-yl)-N-ethyl-3-(1-ethyl-2-oxoazetidin-3-yl)propanamide], the mortality at 200 ppm in assay [1] (setting [3]) and in assay [2] (setting [4]) was 80 to 100% in each case.

For the molecule `CC(C)(C)[Si](C)(C)N1CC(CCCC(=O)O)C1=O` (centres unmarked) [Compound C5, 4-(1-(tert-Butyldimethylsilyl)-2-oxoazetidin-3-yl)butanoic acid], the mortality at 200 ppm in assay [1] (foliar) was 0 to 80%; in assay [2] (foliar), below 0%.

For the molecule `CCN(C(=O)CCNC(=O)/C=C/C(F)(F)F)c1cn(-c2cccnc2)nc1Cl` [Compound F65, (E)-N-(3-((3-Chloro-1-(pyridin-3-yl)-1H-pyrazol-4-yl)(ethyl)amino)-3-oxopropyl)-4,4,4-trifluorobut-2-enamide], the mortality at 200 ppm in assay [1] (setting [3]) and in assay [2] (setting [4]) was 80 to 100% in each case.

Turning to `CCN(C(=O)CCNC(=O)CC(C)C(F)(F)F)c1cn(-c2cccnc2)nc1Cl` (centres unmarked) [Compound F28, N-(3-((3-Chloro-1-(pyridin-3-yl)-1H-pyrazol-4-yl)(ethyl)amino)-3-oxopropyl)-4,4,4-trifluoro-3-methylbutanamide], the mortality at 200 ppm in assay [1] (setting [3]) and in assay [2] (setting [4]) was 80 to 100% throughout.

Regarding `CCN(C(=O)CCn1ccc(/C(C)=N/OC)n1)c1cn(-c2cccnc2)nc1Cl` [FA1, (E/Z)-N-(3-Chloro-1-(pyridin-3-yl)-1H-pyrazol-4-yl)-N-ethyl-3-(3-(1-(methoxyimino)ethyl)-1H-pyrazol-1-yl)propanamide], the mortality at 200 ppm in assay [1] (setting [3]) lay in the range of 0 to 80%; in assay [2] (setting [4]), 80 to 100%.

In the case of `CCN(C(=O)CCC(=O)NCC1CCCCC1)c1cn(-c2cccnc2)nc1Cl` [Compound F15, N1-(3-Chloro-1-(pyridin-3-yl)-1H-pyrazol-4-yl)-N4-(cyclohexylmethyl)-N1-ethylsuccinamide], the mortality at 200 ppm in assay [1] (setting [3]) lay within 0 to 80%; in assay [2] (setting [4]), 80 to 100%.

As for `O=C1CCCN1CC(=O)N(CC1CC1)c1cn(-c2cccnc2)nc1Cl` [Compound F98, N-(3-chloro-1-(pyridin-3-yl)-1H-pyrazol-4-yl)-N-(cyclopropylmethyl)-2-(2-oxopyrrolidin-1-yl)acetamide], the mortality at 200 ppm in assay [1] (setting [3]) and in assay [2] (setting [4]) was 80 to 100% throughout.

For `O=C(CCC(=O)N(CC1CC1)c1cn(-c2cccnc2)nc1Cl)N1CCCC1` [Compound F95, N-(3-Chloro-1-(pyridin-3-yl)-1H-pyrazol-4-yl)-N-(cyclopropylmethyl)-4-oxo-4-(pyrrolidin-1-yl)butanamide], the mortality at 200 ppm in assay [1] (setting [3]) and in assay [2] (setting [4]) was 0 to 80% in each case.

In the case of `CCN(C(=O)CC/C(=N\OCC1CC1(F)F)c1cccs1)c1cn(-c2cccnc2)nc1Cl` (centres unmarked) [FA38, (E)-N-(3-Chloro-1-(pyridin-3-yl)-1H-pyrazol-4-yl)-4-(((2,2-difluorocyclopropyl)methoxy)imino)-N-ethyl-4-(thiophen-2-yl)butanamide], the mortality at 200 ppm in assay [1] (setting [3]) and in assay [2] (setting [4]) was 0 to 80% each time.

On to `CCN(C(=O)CCC(=O)NC1CC1C(F)(F)F)c1cn(-c2cccnc2)nc1Cl` (centres unmarked) [Compound F54, N1-(3-Chloro-1-(pyridin-3-yl)-1H-pyrazol-4-yl)-N1-ethyl-N4-(2-(trifluoromethyl)cyclopropyl) succinamide], for which the mortality at 200 ppm in assay [1] (setting [3]) and in assay [2] (setting [4]) was 80 to 100% in each case.

In the case of `CCN(C(=O)CCNC(=O)OC(C)(C)C)c1cn(-c2cccnc2)nc1Cl` [Compound F19, tert-Butyl (3-((3-chloro-1-(pyridin-3-yl)-1H-pyrazol-4-yl)(ethyl)amino)-3-oxopropyl)carbamate], the mortality at 200 ppm in assay [1] (setting [3]) and in assay [2] (setting [4]) was 80 to 100% throughout.

On to `CCN(C(=O)CCC(=O)N1CCCCCC1)c1cn(-c2cccnc2)nc1Cl` [Compound F100, 4-(Azepan-1-yl)-N-(3-chloro-1-(pyridin-3-yl)-1H-pyrazol-4-yl)-N-ethyl-4-oxobutanamide], for which the mortality at 200 ppm in assay [1] (setting [3]) was 0 to 80%; in assay [2] (setting [4]) it was 80 to 100%.

As for `CCN(C(=O)CCC(=O)N(C)CC(F)(F)F)c1cn(-c2cccnc2)nc1Cl` [Compound F85, N1-(3-Chloro-1-(pyridin-3-yl)-1H-pyrazol-4-yl)-N1-ethyl-N4-methyl-N4-(2,2,2-trifluoroethyl) succinamide], the mortality at 200 ppm in assay [1] (setting [3]) and in assay [2] (setting [4]) was 80 to 100% each time.

Regarding `CCN(C(=O)CCN1CCCCC1=O)c1cn(-c2cccnc2)nc1Cl` [Compound F8, N-(3-Chloro-1-(pyridin-3-yl)-1H-pyrazol-4-yl)-N-ethyl-3-(2-oxopiperidin-1-yl)propanamide], the mortality at 200 ppm in assay [1] (setting [3]) and in assay [2] (setting [4]) was 80 to 100% each time.

On to `CCN1CC(CCCC(=O)N(CC)c2cn(-c3cccnc3)nc2Cl)C1=O` (centres unmarked) [Compound F81, N-(3-Chloro-1-(pyridin-3-yl)-1H-pyrazol-4-yl)-N-ethyl-4-(1-ethyl-2-oxoazetidin-3-yl)butanamide], for which the mortality at 200 ppm in assay [1] (setting [3]) and in assay [2] (setting [4]) was 80 to 100% each time.

For `C#CCN(C(=O)CN(C)C(=O)OC(C)(C)C)c1cn(-c2cccnc2)nc1Cl` [Compound F23, tert-Butyl (2-((3-chloro-1-(pyridin-3-yl)-1H-pyrazol-4-yl)(prop-2-yn-1-yl)amino)-2-oxoethyl)(methyl) carbamate], the mortality at 200 ppm is 0 to 80% in assay [1] (foliar) and 80 to 100% in assay [2] (foliar).

Consider `CN(C(=O)CCC(=O)N1CCCCCC1)c1cn(-c2cccnc2)nc1Cl` [Compound F27, 4-(Azepan-1-yl)-N-(3-chloro-1-(pyridin-3-yl)-1H-pyrazol-4-yl)-N-methyl-4-oxobutanamide], for which the mortality at 200 ppm in assay [1] (setting [3]) lay in the range of 0 to 80%; in assay [2] (setting [4]), 80 to 100%.

For `CCN(C(=O)C1CN(C(=O)CCC#N)C1)c1cn(-c2cccnc2)nc1Cl` [FA16, N-(3-Chloro-1-(pyridin-3-yl)-1H-pyrazol-4-yl)-1-(3-cyanopropanoyl)-N-ethylazetidine-3-carboxamide], the mortality at 200 ppm in assay [1] (setting [3]) and in assay [2] (setting [4]) was 0 to 80% throughout.

Regarding `CCN(C(=O)C1CN(C(=O)C(F)(F)F)C1)c1cn(-c2cccnc2)nc1Cl` [FA14, N-(3-Chloro-1-(pyridin-3-yl)-1H-pyrazol-4-yl)-N-ethyl-1-(2,2,2-trifluoroacetyl)azetidine-3-carboxamide], the mortality at 200 ppm in assay [1] (setting [3]) and in assay [2] (setting [4]) was 80 to 100% each time.

As to `CCN(C(=O)CCNC(=O)CC(F)(F)F)c1cn(-c2cccnc2)nc1Cl` [Compound F63, N-(3-((3-Chloro-1-(pyridin-3-yl)-1H-pyrazol-4-yl)(ethyl)amino)-3-oxopropyl)-3,3,3-trifluoropropanamide], the mortality at 200 ppm in assay [1] (setting [3]) and in assay [2] (setting [4]) was 80 to 100% throughout.

Usually mortality stands for the share of the test organisms that died.
